Measurements: patent US20230219965A1 (KSQ Therapeutics, Inc., priority 2020, published 2023)
Read-outs that look alike come from different tables or passages of the source.

Experiments:
[1] = Liver microsomal metabolic stability, human liver microsomes (HLM); settings: human, liver microsomes
[2] = system: Ub-PCNA levels in the nucleus of ES2 cells (USP1 activity); assay: ES2 Ub-PCNA immunofluorescence (IF) assay; assay type: cell-based; settings: Homo sapiens, ES-2; ES2 cells, 3 hours, Ub-PCNA immunofluorescence; read-out: USP1 IC50 (Ub-PCNA)
Procedure, shortened: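 Cells plated overnight, then compound-treated for 3 h at 37° C (0.3% DMSO final), methanol-fixed and stained with anti-Ub-PCNA plus DAPI. Per-nucleus Ub-PCNA intensity imaged; cells above the 95% cutoff of untreated wells counted as positive, and percent positive cells used to derive AC50.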

USP1/UAF1 enzyme = USP1/UAF1 enzyme (Homo sapiens, UniProt O94782); assay: USP1/UAF1 deubiquitination assay (ubiquitin-rhodamine 110 substrate); assay type: biochemical; settings: read-out: USP1 IC50 (Ub-Rho)
Chain of USP1/UAF1 enzyme (O94782 whole entry): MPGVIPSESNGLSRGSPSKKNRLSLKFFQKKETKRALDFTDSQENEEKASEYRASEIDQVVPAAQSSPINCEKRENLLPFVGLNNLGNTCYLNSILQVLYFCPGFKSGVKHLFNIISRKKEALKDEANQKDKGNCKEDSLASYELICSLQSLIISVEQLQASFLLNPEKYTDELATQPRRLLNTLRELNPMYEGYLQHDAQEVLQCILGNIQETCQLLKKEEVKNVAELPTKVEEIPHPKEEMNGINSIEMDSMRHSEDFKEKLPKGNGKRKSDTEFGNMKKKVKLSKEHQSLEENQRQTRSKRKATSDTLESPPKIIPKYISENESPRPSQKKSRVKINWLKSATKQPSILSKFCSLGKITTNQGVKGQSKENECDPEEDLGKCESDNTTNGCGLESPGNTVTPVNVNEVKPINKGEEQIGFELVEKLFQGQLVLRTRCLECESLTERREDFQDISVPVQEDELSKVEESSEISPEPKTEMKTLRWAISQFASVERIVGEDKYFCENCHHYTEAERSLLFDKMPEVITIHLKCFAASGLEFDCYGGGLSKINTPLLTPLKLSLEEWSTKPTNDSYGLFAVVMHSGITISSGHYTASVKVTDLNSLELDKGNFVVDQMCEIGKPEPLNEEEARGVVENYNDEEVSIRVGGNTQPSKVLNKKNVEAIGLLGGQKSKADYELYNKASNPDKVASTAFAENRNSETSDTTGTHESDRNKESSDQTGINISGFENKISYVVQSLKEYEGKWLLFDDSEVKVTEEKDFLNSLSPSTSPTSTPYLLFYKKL
Chain of USP1/UAF1 enzyme (Q8TAF3 whole entry partner): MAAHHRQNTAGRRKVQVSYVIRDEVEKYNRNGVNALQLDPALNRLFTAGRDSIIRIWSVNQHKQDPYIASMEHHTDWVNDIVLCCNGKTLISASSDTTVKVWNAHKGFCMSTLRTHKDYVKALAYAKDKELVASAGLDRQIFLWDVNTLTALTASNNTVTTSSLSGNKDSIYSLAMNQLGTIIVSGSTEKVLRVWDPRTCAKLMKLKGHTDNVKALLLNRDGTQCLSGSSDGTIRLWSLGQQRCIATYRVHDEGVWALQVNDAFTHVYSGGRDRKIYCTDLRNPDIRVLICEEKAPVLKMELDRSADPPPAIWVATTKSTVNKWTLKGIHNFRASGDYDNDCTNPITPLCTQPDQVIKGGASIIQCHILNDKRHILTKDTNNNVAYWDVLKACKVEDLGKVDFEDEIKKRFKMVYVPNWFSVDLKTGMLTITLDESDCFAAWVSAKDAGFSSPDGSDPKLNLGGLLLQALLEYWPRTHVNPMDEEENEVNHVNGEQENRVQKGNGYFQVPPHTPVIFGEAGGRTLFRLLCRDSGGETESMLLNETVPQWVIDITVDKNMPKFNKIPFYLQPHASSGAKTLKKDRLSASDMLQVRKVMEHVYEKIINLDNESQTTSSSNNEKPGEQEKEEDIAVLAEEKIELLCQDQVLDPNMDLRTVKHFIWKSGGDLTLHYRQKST
Procedure, shortened: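 0.05 nM USP1/UAF1 was preincubated 10 min with compounds (dose response from 10 μM) in 50 mM Tris-HCl pH 7.8, 0.5 mM EDTA, 0.01% BSA, 1 mM DTT, 0.01% Tween-20. 150 nM ubiquitin-rhodamine 110 started the reaction, read kinetically 30 min at Ex480/Em540; IC50 by four-parameter fit versus no-enzyme and DMSO controls.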

[3] = Liver microsomal metabolic stability, rat liver microsomes (RLM); settings: rat, liver microsomes, t1/2 (min) in RLM, 1 μM compound, 1 mg/mL microsomes, NADPH
[4] = ADME solubility determination in PBS at pH 2.0 and pH 7.4; assay type: physicochemical; settings: phosphate buffered saline, 25 °C, thermodynamic from solid
Procedure, shortened: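 Dried 10 mM DMSO stock residues taken up in PBS pH 7.4 or pH 2.0, shaken 24 h at 25° C. After centrifugation, supernatant quantified by LC-MS/MS against a standard of known concentration, with a dilution factor applied.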

[5] = pH 2, aqueous buffer, PBS pH 2.0, 25° C., read-out: Solubility at pH 2.0
[6] = pH 7.4, aqueous buffer, PBS pH 7.4, 25° C., read-out: Solubility at pH 7.4

CCn1cc(C(F)(F)F)nc1-c1ccc([C@H](C)N2C(=O)CCn3nc(-c4c(OC)ncnc4C4CC4)nc32)cc1 [Example 183]
half-life at 1 μM [1]: < 25 min
IC50 [2]: < 100 nM
IC50 (USP1/UAF1 enzyme): < 100 nM
half-life at 1 μM [3]: > 25 min
solubility at 24 h [4, 5]: ≥ 10 µM
solubility at 24 h [4, 6]: ≥ 10 µM

CCn1cc(C(F)(F)F)nc1-c1ccc([C@@H](C)N2C(=O)CCn3nc(-c4c(OC)ncnc4C4CC4)nc32)cc1 [Example 184]
half-life at 1 μM [1]: > 25 min
IC50 [2]: < 100 nM
IC50 (USP1/UAF1 enzyme): < 100 nM
half-life at 1 μM [3]: < 25 min
solubility at 24 h [4, 5]: ≥ 10 µM
solubility at 24 h [4, 6]: ≥ 10 µM

CCn1cc(C(F)(F)F)nc1-c1ccc(CN2C(=O)CCn3nc(-c4c(Cl)cnn4C(C)C)nc32)cn1 [Example 186]
half-life at 1 μM [1]: > 25 min
IC50 [2]: 100 to 500 nM
IC50 (USP1/UAF1 enzyme): < 100 nM
half-life at 1 μM [3]: > 25 min
solubility at 24 h [4, 5]: < 10 µM
solubility at 24 h [4, 6]: < 10 µM

COc1ncnc(C2CC2)c1-c1nc2n(n1)CCC(=O)N2[C@@H](C)c1ccc(-c2nc(C(F)(F)F)cn2C(C)C)cc1 [Example 188]
half-life at 1 μM [1]: > 25 min
IC50 [2]: < 100 nM
IC50 (USP1/UAF1 enzyme): 100 to 500 nM
half-life at 1 μM [3]: > 25 min
solubility at 24 h [4, 5]: ≥ 10 µM
solubility at 24 h [4, 6]: ≥ 10 µM

COc1ncnc(C2CC2)c1-c1nc2n(n1)CCC(=O)N2[C@H](C)c1ccc(-c2nc(C(F)(F)F)cn2C(C)C)cc1 [Example 189]
half-life at 1 μM [1]: > 25 min
IC50 [2]: < 100 nM
IC50 (USP1/UAF1 enzyme): < 100 nM
half-life at 1 μM [3]: > 25 min
solubility at 24 h [4, 5]: ≥ 10 µM
solubility at 24 h [4, 6]: ≥ 10 µM

CCn1cc(C(F)(F)F)nc1-c1ccc([C@H](C)N2C(=O)CCn3nc(-c4c(OC)ncnc4C4CC4)nc32)cc1F [Example 190]
half-life at 1 μM [1]: > 25 min
IC50 [2]: < 100 nM
IC50 (USP1/UAF1 enzyme): < 100 nM
half-life at 1 μM [3]: > 25 min
solubility at 24 h [4, 5]: ≥ 10 µM
solubility at 24 h [4, 6]: ≥ 10 µM

CCn1cc(C(F)(F)F)nc1-c1ccc([C@@H](C)N2C(=O)CCn3nc(-c4c(OC)ncnc4C4CC4)nc32)cc1F [Example 191]
half-life at 1 μM [1]: > 25 min
IC50 [2]: < 100 nM
IC50 (USP1/UAF1 enzyme): < 100 nM
half-life at 1 μM [3]: < 25 min
solubility at 24 h [4, 5]: < 10 µM
solubility at 24 h [4, 6]: < 10 µM

CCn1cc(C(F)(F)F)nc1-c1ccc([C@H](C)N2C(=O)CCn3nc(-c4c(Cl)cnn4C(C)C)nc32)cc1 [Example 193]
half-life at 1 μM [1]: < 25 min
IC50 [2]: < 100 nM
IC50 (USP1/UAF1 enzyme): < 100 nM
half-life at 1 μM [3]: < 25 min
solubility at 24 h [4, 5]: < 10 µM
solubility at 24 h [4, 6]: < 10 µM

CCn1cc(C(F)(F)F)nc1-c1ccc([C@@H](C)N2C(=O)CCn3nc(-c4c(Cl)cnn4C(C)C)nc32)cc1 [Example 194]
half-life at 1 μM [1]: < 25 min
IC50 [2]: < 100 nM
IC50 (USP1/UAF1 enzyme): < 100 nM
half-life at 1 μM [3]: < 25 min
solubility at 24 h [4, 5]: < 10 µM
solubility at 24 h [4, 6]: < 10 µM

COc1ncnc(C2CC2)c1-c1nc2n(n1)CCC(=O)N2Cc1ccc(-c2nc(C(F)(F)F)cn2C(C)CF)cc1 (stereo not drawn) [Example 195]
half-life at 1 μM [1]: > 25 min
IC50 [2]: < 100 nM
IC50 (USP1/UAF1 enzyme): 100 to 500 nM
half-life at 1 μM [3]: > 25 min
solubility at 24 h [4, 5]: ≥ 10 µM
solubility at 24 h [4, 6]: ≥ 10 µM

COc1ncnc(C2CC2)c1-c1nc2n(n1)CCC(=O)N2[C@@H](C)c1ccc(-c2nc(C(F)(F)F)cn2C)c(F)c1 [Example 196]
half-life at 1 μM [1]: < 25 min
IC50 [2]: < 100 nM
IC50 (USP1/UAF1 enzyme): 100 to 500 nM
half-life at 1 μM [3]: > 25 min
solubility at 24 h [4, 5]: ≥ 10 µM
solubility at 24 h [4, 6]: ≥ 10 µM

COc1ncnc(C2CC2)c1-c1nc2n(n1)CCC(=O)N2[C@H](C)c1ccc(-c2nc(C(F)(F)F)cn2C)c(F)c1 [Example 197]
half-life at 1 μM [1]: > 25 min
IC50 [2]: < 100 nM
IC50 (USP1/UAF1 enzyme): < 100 nM
half-life at 1 μM [3]: > 25 min
solubility at 24 h [4, 5]: ≥ 10 µM
solubility at 24 h [4, 6]: ≥ 10 µM

COc1ncnc(C2CC2)c1-c1nc2n(n1)CCC(=O)N2[C@@H](C)c1ccc(-c2nc(C(F)(F)F)cn2C2CC2)cc1 [Example 200]
half-life at 1 μM [1]: > 25 min
IC50 [2]: < 100 nM
IC50 (USP1/UAF1 enzyme): 100 to 500 nM
half-life at 1 μM [3]: > 25 min
solubility at 24 h [4, 5]: ≥ 10 µM
solubility at 24 h [4, 6]: ≥ 10 µM
